These results are taken from US10385024B2, “Compounds and methods for inhibiting NHE-mediated antiport in the treatment of disorders associated with fluid retention or salt overload and gastrointestinal tract disorders” (Ardelyx, Inc., priority 2012, dated 2019).

The subject of data set [1] is absorption of sodium from the intestinal lumen. Put plainly: Inhibition of intestinal sodium absorption (urinary sodium and fecal form). Type of data set: in vivo, Sprague-Dawley rats. Particulars: rat; for response vs control in vivo at 3 mg/kg: 3 mg/kg oral gavage, urine 16 h post-dose, asterisks = significance vs vehicle (*P<0.05, **P<0.01, ***P<0.001), read-out: uNa (% of vehicle). An outline of the steps:
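Sprague-Dawley rats (8 weeks, n=6) dosed by oral gavage with compound or water vehicle (10 mL/kg) in late afternoon, then housed in metabolic cages. Over 16 h, urinary sodium measured by ion chromatography and expressed as % of vehicle mean; fecal form scored 1–5, averaged from two observations.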

For data set [2], the target named is T1, Rat NHE-3 (Rattus norvegicus, UniProt P26433).
T1 construct: expressed in transfected cells; host or cells: Opossum kidney (OK) cells (ATCC), transfected by electroporation
T1 sequence (P26433 29-831): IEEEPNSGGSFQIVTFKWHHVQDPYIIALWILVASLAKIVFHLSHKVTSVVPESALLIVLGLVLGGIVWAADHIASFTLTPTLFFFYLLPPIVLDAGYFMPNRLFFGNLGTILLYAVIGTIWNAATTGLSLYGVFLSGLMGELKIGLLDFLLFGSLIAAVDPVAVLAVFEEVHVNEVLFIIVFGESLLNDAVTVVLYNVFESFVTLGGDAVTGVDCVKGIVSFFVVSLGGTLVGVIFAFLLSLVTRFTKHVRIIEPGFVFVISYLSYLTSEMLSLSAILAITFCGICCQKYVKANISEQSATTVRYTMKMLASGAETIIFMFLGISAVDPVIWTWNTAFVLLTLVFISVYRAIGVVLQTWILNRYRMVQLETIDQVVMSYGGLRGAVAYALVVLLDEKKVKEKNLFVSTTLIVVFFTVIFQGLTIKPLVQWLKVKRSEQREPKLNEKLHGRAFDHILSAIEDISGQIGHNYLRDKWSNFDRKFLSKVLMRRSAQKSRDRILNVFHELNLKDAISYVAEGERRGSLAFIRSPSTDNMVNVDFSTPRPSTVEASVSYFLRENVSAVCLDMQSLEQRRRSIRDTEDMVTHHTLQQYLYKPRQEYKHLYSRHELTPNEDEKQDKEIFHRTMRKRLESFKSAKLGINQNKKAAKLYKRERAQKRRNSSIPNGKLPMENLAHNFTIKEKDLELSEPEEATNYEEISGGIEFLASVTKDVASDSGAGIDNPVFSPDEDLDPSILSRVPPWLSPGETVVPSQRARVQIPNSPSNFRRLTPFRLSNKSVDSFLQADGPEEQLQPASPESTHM
Put plainly: Cell-based assay of NHE-3 activity (persistent inhibition, after washout). The conditions noted are these: OK cells with rat NHE-3 gene, 60 min incubation, recovery initiated 40 min after compound washout. An outline of the steps:
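OK cells transiently expressing rat NHE-3 were exposed to 0-30 μM compound in NaCl-HEPES pH 7.4 for 60 min, then washed free of drug before NH4Cl/BCECF-AM loading and acid-loading in Na+-free choline buffer. Na+-dependent pH recovery rates (mean of ≥2 replicates) gave pIC50.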

The next data set can be described thus: Fecal recovery. Format: in vivo, Sprague Dawley rats. The conditions noted are these: rat, 1 mg/kg oral gavage, collection time 48 h; for dose excreted: male, Sprague-Dawley, faeces. The method, then: Three male Sprague Dawley rats were administered 1 mg/kg test compound by oral gavage. Feces were collected from study animals from 0-48 or 0-72 hours after dosing, dried by lyophilization, and homogenized. Replicate aliquots of 40-60 mg each were subjected to extraction/protein precipitation with 7:1 acetonitrile:water and centrifuged. Supernatants were diluted 1:10 in 50:50 acetonitrile:water prior to analysis by LC-MS/MS. Compound concentrations, determined by interpolation from a standard calibration curve prepared in blank feces matrix, were converted to the percentage of dosed material recovered by taking into account the total collected fecal matter. The percent recovery for each rat was reported as the mean of the calculations from replicate samples. The overall percent recovery (Fecal Recovery [%]) was reported as the mean percent recovery from three rats. Accurate quality control sample recoveries were confirmed in each run, and extraction efficiency was periodically verified.

Data set [3] concerns the target T1, Rat NHE-3. Put plainly: Cell-based assay of NHE-3 activity (rat NHE-3 prompt inhibition). Particulars: OK cells with rat NHE-3 gene, compound present during pH recovery. An outline of the steps:
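Opossum kidney cells electroporated with rat or human NHE-3, loaded with 5 μM BCECF-AM in NH4Cl-HEPES pH 7.4 for 30 min at RT, then acidified 10 min in Na+-free choline HEPES. Na+-dependent pH recovery rates from BCECF fluorescence, averaged over ≥2 replicates, gave pIC50.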

Turning to `CN1Cc2c(Cl)cc(Cl)cc2[C@H](c2cccc(S(=O)(=O)NCCOCCOCCNC(=O)CCC(CCC(=O)NCCOCCOCCNS(=O)(=O)c3cccc([C@@H]4CN(C)Cc5c(Cl)cc(Cl)cc54)c3)(CCC(=O)NCCOCCOCCNS(=O)(=O)c3cccc([C@@H]4CN(C)Cc5c(Cl)cc(Cl)cc54)c3)NC(=O)CCC(=O)O)c2)C1` [Example 40], the response vs control in vivo at 3 mg/kg in data set [1] was below 35%. Besides, the “Rat NHE3 pIC50 (persistent)” value at Rat NHE-3 [2] was “C (C NHE3 pIC50 > 7)”. Moreover, the “Fecal Recovery” value in “Fecal recovery” is given as 99.1%. The “Rat NHE3 pIC50 (prompt)” value at Rat NHE-3 [3] was “C (C NHE3 pIC50 > 7)”.
`CN1Cc2c(Cl)cc(Cl)cc2[C@H](c2cccc(S(=O)(=O)NCCOCCOCCNC(=O)NCCCN(CCCNC(=O)NCCOCCOCCNS(=O)(=O)c3cccc([C@@H]4CN(C)Cc5c(Cl)cc(Cl)cc54)c3)CCCNC(=O)NCCOCCOCCNS(=O)(=O)c3cccc([C@@H]4CN(C)Cc5c(Cl)cc(Cl)cc54)c3)c2)C1` [Example 43, (S)—N,N′-(15-(1-(3-((S)-6,8-dichloro-2-methyl-1,2,3,4-tetrahydroisoquinolin-4-yl)phenylsulfonamido)-10-oxo-3,6-dioxa-9,11-diazatetradecan-14-yl)-10,20-dioxo-3,6,24,27-tetraoxa-9,11,15,19,21-pentaazanonacosane-1,29-diyl)bis(3-((S)-6,8-dichloro-2-methyl-1,2,3,4-tetrahydroisoquinolin-4-yl)benzenesulfonamide)]: the response vs control in vivo at 3 mg/kg in data set [1] is 35 to 75%. Besides, the IC50 on Rat NHE-3 [2] (read-out: Rat NHE3 pIC50 (persistent) (converted)) was below 100 nM; on Rat NHE-3 [3] (read-out: Rat NHE3 pIC50 (prompt) (converted)) it was 100 to 10000 nM. This compound also displayed a dose excreted in “Fecal recovery” of 53.8%.
`CN1Cc2c(Cl)cc(Cl)cc2[C@H](c2cccc(S(=O)(=O)NCCOCCOCCN(C)C(=O)NCCCN(CCCNC(=O)N(C)CCOCCOCCNS(=O)(=O)c3cccc([C@@H]4CN(C)Cc5c(Cl)cc(Cl)cc54)c3)CCCNC(=O)N(C)CCOCCOCCNS(=O)(=O)c3cccc([C@@H]4CN(C)Cc5c(Cl)cc(Cl)cc54)c3)c2)C1` [Example 55]: the FFS in data set [1] (fecal form score, scale 1 (normal pellet) to 5 (liquid fecal streams), group average, 3 mg/kg oral, 16 h post-dose, vehicle = 1) is 2. For the same compound, the response vs control in vivo at 3 mg/kg in data set [1] fell in the range of 35 to 75%. The “Rat NHE3 pIC50 (persistent)” value at Rat NHE-3 [2] was “C (C NHE3 pIC50 > 7)”. In “Fecal recovery”, this compound returned a dose excreted of 64.6%. Besides, the “Rat NHE3 pIC50 (prompt)” value on Rat NHE-3 [3] is “B (B NHE3 pIC50 5-7)”.
Consider `CN1Cc2c(Cl)cc(Cl)cc2[C@H](c2cccc(S(=O)(=O)NCCOCCOCCNC(=O)NCCCC(N)(CCCNC(=O)NCCOCCOCCNS(=O)(=O)c3cccc([C@@H]4CN(C)Cc5c(Cl)cc(Cl)cc54)c3)CCCNC(=O)NCCOCCOCCNS(=O)(=O)c3cccc([C@@H]4CN(C)Cc5c(Cl)cc(Cl)cc54)c3)c2)C1` [Example 62], for which, in data set [1], the response vs control in vivo at 3 mg/kg lay in the range of 35 to 75%. Moreover, the “Rat NHE3 pIC50 (persistent)” value on Rat NHE-3 [2] is given as “C (C NHE3 pIC50 > 7)”. Besides, in “Fecal recovery”, the dose excreted was found to be 81.5%. Further, the “Rat NHE3 pIC50 (prompt)” value on Rat NHE-3 [3] is reported as “B (B NHE3 pIC50 5-7)”.
As for `CN1Cc2c(Cl)cc(Cl)cc2[C@H](c2cccc(S(=O)(=O)NCCOCCOCCNC(=O)NCCCC(CCCNC(=O)NCCOCCOCCNS(=O)(=O)c3cccc([C@@H]4CN(C)Cc5c(Cl)cc(Cl)cc54)c3)(CCCNC(=O)NCCOCCOCCNS(=O)(=O)c3cccc([C@@H]4CN(C)Cc5c(Cl)cc(Cl)cc54)c3)NC(=O)NC[C@H](O)[C@@H](O)[C@H](O)[C@H](O)CO)c2)C1` [Example 65], the response vs control in vivo at 3 mg/kg in data set [1] fell in the range of 35 to 75%. The “Rat NHE3 pIC50 (persistent)” value on Rat NHE-3 [2] was “C (C NHE3 pIC50 > 7)”. Further, the dose excreted in “Fecal recovery” came out at 112%. On Rat NHE-3 [3], the “Rat NHE3 pIC50 (prompt)” value is recorded as “B (B NHE3 pIC50 5-7)”.
